Experiments:
Format in all cases: ADME, organism-based
Conditions in all cases: in vivo
[1] = AUC (0 to infinity) in Sprague-Dawley rat at 3 mg/kg, po; set-up: dose 3 mg/kg, time infinity, route oral
[2] = Tmax in Sprague-Dawley rat at 3 mg/kg, po
[3] = Clearance in Sprague-Dawley rat at 1 mg/kg, iv
[4] = Half life in Sprague-Dawley rat at 1 mg/kg, iv
[5] = Cmax in Sprague-Dawley rat at 3 mg/kg, po; set-up: dose 3 mg/kg, route oral
[6] = AUC (0 to infinity) in Sprague-Dawley rat at 1 mg/kg, iv; set-up: dose 1 mg/kg, route intravenous, time infinity
[7] = Oral bioavailability in Sprague-Dawley rat at 3 mg/kg

Structure (SMILES): CCc1nc(C(N)=O)c(Nc2ccc3c(c2)CCN(C2CCCC2)CC3)nc1NC1CCOCC1
- AUC(0-inf) [1]: 199 ng·h/mL
- Tmax [2]: 4 h
- clearance [3]: 93.2 mL/min/kg
- half-life [4]: 2.12 h
- Cmax [5]: 23.8 ng/mL
- AUC(0-inf) [6]: 179 ng·h/mL
- bioavailability [7]: 24.8%

Reference: ChEMBL document CHEMBL4422653, “Discovery of a potent tyrosine kinase AXL inhibitor bearing the 3-((2,3,4,5-tetrahydro-1H-benzo[d]azepin-7-yl)amino)pyrazine core” (Bioorg Med Chem Lett, 2019)
